From PMC12124388, “High-affinity PQQ import is widespread in Gram-negative bacteria” (Science Advances, 2025)

Columns and labels:
[1] = molecular target: T1, PqqU (formerly YncD) (Escherichia coli, UniProt P76115); test: cryo-EM structure of complex, […] Å; format: binding; details: 43 μM PqqU with 910 μM PQQ; LMNG micelle; single PQQ in internal extracellular-side cavity, loops 7 and 8 closed; no metal bound to PQQ
T1 construct: 10xHis-tagged PqqU from pET-20b-pqqU, expressed in E. coli BL21 (DE3) C41, purified from membranes (DDM or LMNG), 76 kDa monomer; 700 residues in full, 39-699 modelled
T1 sequence (P76115 24-700): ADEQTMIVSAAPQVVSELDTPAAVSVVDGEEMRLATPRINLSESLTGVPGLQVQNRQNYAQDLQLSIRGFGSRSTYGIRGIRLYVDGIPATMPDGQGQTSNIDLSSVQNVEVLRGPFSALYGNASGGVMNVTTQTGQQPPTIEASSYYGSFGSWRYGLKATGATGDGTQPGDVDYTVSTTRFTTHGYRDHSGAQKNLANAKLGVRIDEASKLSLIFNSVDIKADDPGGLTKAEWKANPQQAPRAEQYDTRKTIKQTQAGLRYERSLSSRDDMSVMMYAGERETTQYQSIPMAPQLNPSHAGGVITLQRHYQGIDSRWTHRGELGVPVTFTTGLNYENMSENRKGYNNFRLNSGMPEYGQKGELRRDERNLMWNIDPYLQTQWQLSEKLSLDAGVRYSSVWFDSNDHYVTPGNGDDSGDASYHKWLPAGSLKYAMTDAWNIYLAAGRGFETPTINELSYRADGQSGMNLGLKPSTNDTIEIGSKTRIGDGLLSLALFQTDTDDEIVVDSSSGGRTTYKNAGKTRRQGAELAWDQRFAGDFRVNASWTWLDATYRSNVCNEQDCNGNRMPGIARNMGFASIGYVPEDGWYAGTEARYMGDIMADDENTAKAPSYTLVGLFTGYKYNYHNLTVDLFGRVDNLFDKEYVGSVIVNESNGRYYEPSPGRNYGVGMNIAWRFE

[2] = molecular target: T1, PqqU (formerly YncD); test: isothermal titration calorimetry; format: binding; details: 50 mM tris-HCl pH 7.4, 150 mM NaCl; LMNG-purified, excess detergent removed; PQQ as disodium salt, oxidized; curve not accurately fitted, Kd only stated as low to subnanomolar range

## O=C(O)c1cc(C(=O)O)c2c(n1)C(=O)C(=O)c1cc(C(=O)O)[nH]c1-2 [PQQ]
[1]
  cryo-EM structure of complex, 1.99 Å: we used cryo-EM to resolve the structure of the PqqU-PQQ complex
[2]
  Kd: likely with a Kd in the low to subnanomolar range
